According to patent publication US8629168B2, “Benzoxazoles and oxazolopyridines being useful as janus kinases inhibitors” (priority 2006, dated 2014):

Experiments:
[1] = target: T1, GST-JAK2 (Homo sapiens, UniProt O60674); assay: JAK2 kinase assay of the general description (alternative method, flash plate); format: biochemical; conditions: 1.0 μM ATP, read-out: IC50 with test in general description (named “alternative method to that given in the examples”) (“flash plate”)
T1 construct: the amino acid domain ASP751-VAL1129 of the JAK2 protein
T1 sequence (O60674 751-1129): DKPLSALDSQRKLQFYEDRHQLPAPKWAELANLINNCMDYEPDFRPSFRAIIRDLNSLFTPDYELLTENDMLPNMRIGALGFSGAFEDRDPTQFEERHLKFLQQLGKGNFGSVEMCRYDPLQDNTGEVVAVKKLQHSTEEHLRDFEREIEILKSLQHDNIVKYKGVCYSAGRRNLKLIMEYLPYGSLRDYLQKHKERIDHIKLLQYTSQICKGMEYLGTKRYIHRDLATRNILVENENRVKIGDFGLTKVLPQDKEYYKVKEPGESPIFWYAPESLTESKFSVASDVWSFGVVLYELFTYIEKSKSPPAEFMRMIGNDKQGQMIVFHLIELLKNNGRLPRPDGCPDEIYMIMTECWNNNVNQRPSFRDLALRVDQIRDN
Description: Baculovirus including the amino acid domain ASP751-VAL1129 of the JAK2 protein is obtainable by ProQinase, Freiburg, Germany. The virus is scaled up as following: Virus containing media is collected from the transfected cell culture and used for infection to increase its titer. Virus containing media obtained after two rounds of infection is used for large-scale protein expression. For large-scale protein expression 100 cm^2 round tissue culture plates are seeded with 5×10^7 cells/plate and infected with 1 mL of virus-containing media (approx. 5 MOIs). After 3 days the cells are scraped off the plate and centrifuged at 500 rpm for 5 min. Cell pellets from 10-20, 100 cm^2 plates, are re-suspended in 50 mL of ice-cold lysis buffer (25 mMTris-HCl, pH7.5, 2 mMEDTA, 1% NP-40, 1 mM DTT, 1 mMP MSF). The cells are stirred on ice for 15 min and then centrifuged at 5000 rpms for 20 min. The protein is purified by loading the centrifuged cell lysate onto a 2 mL glutathione-sepharose column and washed three times with 10 mL of 25 mM Tris-HCl, pH 7.5, 2 mM EDTA, 1 mM DTT, 200 mM NaCl. The GST-tagged proteins are then eluted by 10 applications (1 mL each) of 25 mM Tris-HCl, pH 7.5, 10 mM reduced-glutathione, 100 mM NaCl, 1 mM DTT, 10% Glycerol and stored at −70° C.
Cancer Cell; 5: 231-239]. The test compound is dissolved in DMSO (10 mM) and stored at −20° C. Serial dilutions are freshly made in DMSO and are […] concentrated than test solutions (“pre-dilution plates”). They are further diluted with pure water to yield “master plates” containing 3 times concentrated test solutions in 3% DMSO. The final volume of the assay is 30 μL containing 10 μL of test solution (1% DMSO), 10 μL assay mix including the assay components described by Garcia-Echeverria (2004) and in the following section as well as 10 μL enzyme. The pipetting steps can be programmed to be performed either on the MultiPROBE Iix, MultiPROBE IILx or HamiltonSTAR robots in the 96 well format.
The protein kinase assays are carried as described in details by Garcia-Echeverria (see above). The assay for JAK2 is carried out in 96-well plates at ambient temperature for 10 min (filter-biding method) or 30 min (flash plates) in a finial volume of 30 μL including the following components: 300 ng of GST-JAK2, 20 mM Tris-HCl, pH 7.5, 1.0 mM MnCl2, 10 mM MgCl2, 1 mM DTT, 3 μg/mL poly(Glu, Tyr) 4:1, 1% DMSO and 1.0 μM ATP (γ-[^33P]-ATP 0.1 μCi); The assays are terminated by the addition of 20 μl of 125 mM EDTA. The capturing of the phosphorylated peptides by the filter-binding method is performed as following: 40 μL of the reaction mixture are transferred onto Immobilon-PVDF membranes previously soaked for 5 min with methanol, rinsed with water, then soaked for 5 min with 0.5% H3PO4 and mounted on vacuum manifold with disconnected vacuum source. After spotting all samples, vacuum is connected and each well rinsed with 200 μl 0.5% H3PO4. Free membranes are removed and washed 4× on a shaker with 1.0% H3PO4, once with ethanol. Membranes are counted after drying at ambient temperature, mounting in Packard TopCount 96-well frame, and addition of 10 μl/well of Microscint. The plates are eventually sealed and counted in a microplate scintillation counter (TopCount NXT, TopCount NXT HTS, PerkinElmer, Brussels, Belgium).
The assays for the flash plate method is carried out in a total volume of 30 μL at RT in conventional 96-well flash plates. The reaction is stopped after 30 min by the addition of 20 μL of 125 mM EDTA The assay plates are then washed three times with PBS and dried at room temperature. The plates are sealed and counted in a microplate scintillation counter (TopCount NXT, TopCount NXT HTS). IC50 values are calculated by linear regression analysis of the percentage inhibition of the compound either in duplicate, at four concentrations (usually 0.01, 0.1, 1 and 10 μM) or as 8 single point IC50 starting at 10 μM following by 1:3 dilutions.

[2] = target: T2, GST-JAK2(808-1132) (Homo sapiens, UniProt O60674); assay: EPK JAK/TYK-kinase family profiling assay (Caliper mobility shift), JAK2; format: biochemical; conditions: Caliper mobility shift assay of Example 187, 20 μM ATP, read-out: IC50 with Test in present Example
T2 construct: GST-JAK2(808-1132) is purchased from Invitrogen; purchased Invitrogen (Carlsbad, USA) #4288
T2 sequence (O60674 808-1132): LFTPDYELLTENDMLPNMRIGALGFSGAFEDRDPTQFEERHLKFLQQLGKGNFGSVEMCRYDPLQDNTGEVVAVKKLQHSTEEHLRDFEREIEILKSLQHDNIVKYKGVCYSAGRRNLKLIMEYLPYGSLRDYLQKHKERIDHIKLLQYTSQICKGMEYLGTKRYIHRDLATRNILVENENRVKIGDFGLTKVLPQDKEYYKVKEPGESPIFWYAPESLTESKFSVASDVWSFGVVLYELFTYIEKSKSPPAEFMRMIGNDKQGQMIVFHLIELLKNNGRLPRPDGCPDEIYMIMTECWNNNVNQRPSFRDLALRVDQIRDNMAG
Outline: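 Caliper mobility-shift assay with the GST-tagged kinase domain and a fluorescently labeled peptide substrate plus ATP, run 60 min at 30° C and then stopped with EDTA buffer. Turnover was taken as the substrate/product ratio. Compounds were tested at eight final concentrations from 10 to 0.003 μM.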

Row | IC50 [1] [nM] | melting point [°C] | IC50 [2] [nM] | Compound
1 | 337 | 155 to 158 | – | COc1cc(Nc2nc3cccc(-c4cccc(C)c4)c3o2)cc(OC)c1OC [Example 1, (7-m-Tolyl-benzooxazol-2-yl)-(3,4,5-trimethoxy-phenyl)-amine]
2 | 583 | 165 to 170 | – | COc1cc(Nc2nc3cccc(-c4cccnc4)c3o2)cc(OC)c1OC [Example 3, (7-Pyridin-3-yl-benzooxazol-2-yl)-(3,4,5-trimethoxy-phenyl)-amine]
3 | 99 | 167 to 170 | – | COc1cccc(-c2cccc3nc(Nc4cc(OC)c(OC)c(OC)c4)oc23)c1 [Example 4, [7-(3-Methoxy-phenyl)-benzooxazol-2-yl]-(3,4,5-trimethoxy-phenyl)-amine]
4 | 150 | 185 to 187 | – | COc1ccccc1-c1cccc2nc(Nc3cc(OC)c(OC)c(OC)c3)oc12 [Example 5, [7-(2-Methoxy-phenyl)-benzooxazol-2-yl]-(3,4,5-trimethoxy-phenyl)-amine]
5 | – | 179 to 182 | – | COc1ccc(-c2cccc3nc(Nc4cc(OC)c(OC)c(OC)c4)oc23)cc1 [Example 7, [7-(4-Methoxy-phenyl)-benzooxazol-2-yl]-(3,4,5-trimethoxy-phenyl)-amine]
6 | 368 | 201 to 203 | – | COc1cc(Nc2nc3cccc(-c4cncc5ccccc45)c3o2)cc(OC)c1OC [Example 8, (7-Isoquinolin-4-yl-benzooxazol-2-yl)-(3,4,5-trimethoxy-phenyl)-amine]
7 | 590 | 199 to 201 | – | COc1cc(Nc2nc3cccc(-c4cccc(Cl)c4)c3o2)cc(OC)c1OC [Example 9, [7-(3-Chloro-phenyl)-benzooxazol-2-yl]-(3,4,5-trimethoxy-phenyl)-amine]
8 | 132 | 145 to 170 | – | COc1cc(Nc2nc3cccc(-c4cccc(N)c4)c3o2)cc(OC)c1OC [Example 10, [7-(3-Amino-phenyl)-benzooxazol-2-yl]-(3,4,5-trimethoxy-phenyl)-amine]
9 | 147 | 192 to 196 | – | COc1cc(Nc2nc3cccc(-c4ccc(N)cc4)c3o2)cc(OC)c1OC [Example 11, [7-(4-Amino-phenyl)-benzooxazol-2-yl]-(3,4,5-trimethoxy-phenyl)-amine]
10 | 670 | 192 to 193 | – | COc1ccc(-c2cccc3nc(Nc4cc(OC)c(OC)c(OC)c4)oc23)cn1 [Example 12, [7-(6-Methoxy-pyridin-3-yl)-benzooxazol-2-yl]-(3,4,5-trimethoxy-phenyl)-amine]
11 | 174 | 188 to 190 | – | COc1cc(Nc2nc3cccc(-c4ccc(C)c(N)c4)c3o2)cc(OC)c1OC [Example 13, [7-(3-Amino-4-methyl-phenyl)-benzooxazol-2-yl]-(3,4,5-trimethoxy-phenyl)-amine]
12 | 570 | 187 to 190 | – | COc1cc(Nc2nc3cccc(-c4ccc5ncccc5c4)c3o2)cc(OC)c1OC [Example 15, (7-Quinolin-6-yl-benzooxazol-2-yl)-(3,4,5-trimethoxy-phenyl)-amine]
13 | 93 | > 280 | 35 | COc1cc(Nc2nc3cccc(-c4ccc(C(N)=O)cc4)c3o2)cc(OC)c1OC [Example 16, 4-[2-(3,4,5-Trimethoxy-phenylamino)-benzooxazol-7-yl]-benzamide]
14 | 170 | 222 to 223 | – | COc1cc(Nc2nc3cccc(-c4ccc(C#N)cc4)c3o2)cc(OC)c1OC [Example 19, 4-[2-(3,4,5-Trimethoxy-phenylamino)-benzooxazol-7-yl]-benzonitrile]
15 | 1000 | 185 to 189 | – | COc1cc(Nc2nc3cccc(-c4ccn[nH]4)c3o2)cc(OC)c1OC [Example 20, [7-(2H-Pyrazol-3-yl)-benzooxazol-2-yl]-(3,4,5-trimethoxy-phenyl)-amine]
16 | 140 | 230 to 233 | – | COc1cc(Nc2nc3cccc(-c4ccc(S(=O)(=O)N(C)C)cc4)c3o2)cc(OC)c1OC [Example 22, N,N-Dimethyl-4-[2-(3,4,5-trimethoxy-phenylamino)-benzooxazol-7-yl]-benzenesulfonamide]
17 | 190 | 201 to 203 | – | COc1cc(Nc2nc3cccc(-c4ccc(S(=O)(=O)N5CCOCC5)cc4)c3o2)cc(OC)c1OC [Example 23, {7-[4-(Morpholine-4-sulfonyl)-phenyl]-benzooxazol-2-yl}-(3,4,5-trimethoxy-phenyl)-amine]
18 | 140 | > 280 | – | COc1cc(Nc2nc3cccc(-c4ccc(C(=O)N(C)C)cc4)c3o2)cc(OC)c1OC [Example 25, N,N-Dimethyl-4-[2-(3,4,5-trimethoxy-phenylamino)-benzooxazol-7-yl]-benzamide]
19 | 310 | 170 to 172 | – | COc1cc(Nc2nc3cccc(-c4cccc(NC(C)=O)c4)c3o2)cc(OC)c1OC [Example 28, N-{3-[2-(3,4,5-Trimethoxy-phenylamino)-benzooxazol-7-yl]-phenyl}-acetamide]
20 | 270 | 145 to 150 | – | COc1cc(Nc2nc3cccc(-c4cccc(CN)c4)c3o2)cc(OC)c1OC [Example 32, [7-(3-Aminomethyl-phenyl)-benzooxazol-2-yl]-(3,4,5-trimethoxy-phenyl)-amine]
21 | 290 | 203 to 204 | – | COc1cc(Nc2nc3cccc(-c4cccc(CNC(C)=O)c4)c3o2)cc(OC)c1OC [Example 33, N-{3-[2-(3,4,5-Trimethoxy-phenylamino)-benzooxazol-7-yl]-benzyl}-acetamide]
22 | 240 | 120 to 126 | – | COc1cc(Nc2nc3ccnc(-c4cccc(N)c4)c3o2)cc(OC)c1OC [Example 37, [4-(3-Amino-phenyl)-oxazolo[5,4-c]pyridin-2-yl]-(3,4,5-trimethoxy-phenyl)-amine]
23 | 1200 | 180 to 182 | – | COc1cccc(-c2cccc3nc(Nc4ccc(N5CCOCC5)cc4)oc23)c1 [Example 39, [7-(3-Methoxy-phenyl)-benzooxazol-2-yl]-(4-morpholin-4-yl-phenyl)-amine]
24 | 1100 | 241 to 243 | – | Nc1ccc(-c2cccc3nc(Nc4ccc(N5CCOCC5)cc4)oc23)cc1 [Example 40, [7-(4-Aminophenyl)-benzooxazol-2-yl]-(4-morpholin-4-yl-phenyl)-amine]
25 | 1200 | 235 to 237 | – | Nc1cccc(-c2cccc3nc(Nc4ccc(N5CCOCC5)nc4)oc23)c1 [Example 42, [7-(3-Amino-phenyl)-benzooxazol-2-yl]-(6-morpholin-4-yl-pyridin-3-yl)-amine]
